Measured values as given in patent publication US9884049B2, “Microbicidal composition comprising an octoxynol and a quinolizidine alkaloid compound or a source thereof” (NOVICOL INTERNATIONAL HOLDING INC., priority 2014, dated 2018).

Columns and labels:
TZM-b1 cells [1] = test: Cytotoxicity, XTT assay
TZM-b1 cells [2] = test: Cytotoxicity, CyQuant assay
HIV-1MN = test: Anti-HIV activity, MAGI assay in TZM-b1 cells; conditions: for EC50: HIV-1MN
HIV-1ADA-M = test: Anti-HIV activity, MAGI assay in TZM-b1 cells; conditions: for EC50: HIV-1ADA-M
HIV = conditions: nearly 1,000 sex workers in Africa, versus placebo; cited from earlier work
[3] = Wash (washed four hours after, then 72 h)

## IGEPAL® CA-630
TZM-b1 cells [1]; No wash
  CC50: 0.0002 % (w/v)
TZM-b1 cells [1]; Wash
  CC50: 0.0072 % (w/v)
TZM-b1 cells [2]; No wash (72 h)
  CC50: 0.0036 % (w/v)
TZM-b1 cells [2]; [3]
  CC50: 0.0048 % (w/v)
HIV-1MN; CyQuant/HIV-1MN, No wash
  TI (CC50/EC50): 2.95
HIV-1MN; CyQuant/HIV-1MN, Wash
  TI (CC50/EC50): 1.55
HIV-1MN; No wash
  EC50: 0.0012 % (w/v)
HIV-1MN; Wash
  EC50: 0.0031 % (w/v)
HIV-1MN; XTT/HIV-1MN, No wash
  TI (CC50/EC50): 0.13
HIV-1MN; XTT/HIV-1MN, Wash
  TI (CC50/EC50): 2.31
HIV-1ADA-M; CyQuant/HIV-1ADA-M, No wash
  TI (CC50/EC50): 9.73
HIV-1ADA-M; CyQuant/HIV-1ADA-M, Wash
  TI (CC50/EC50): 1.38
HIV-1ADA-M; No wash
  EC50: 0.00037 % (w/v)
HIV-1ADA-M; Wash
  EC50: 0.0035 % (w/v)
HIV-1ADA-M; XTT/HIV-1ADA-M, No wash
  TI (CC50/EC50): 0.43
HIV-1ADA-M; XTT/HIV-1ADA-M, Wash
  TI (CC50/EC50): 2.05

## nonoxynol-9
HIV
  HIV infection rate, higher than with placebo: about 50%

## O=C1CCC[C@@H]2[C@H]3CCCN4CCC[C@@H](CN12)[C@@H]34 [Matrine, matrine]
TZM-b1 cells [1]; No wash
  CC50: 0.3122 % (w/v)
TZM-b1 cells [1]; Wash
  CC50: 1.1040 % (w/v)
TZM-b1 cells [2]; No wash (72 h)
  CC50: 0.6240 % (w/v)
TZM-b1 cells [2]; [3]
  CC50: 0.3530 % (w/v)
HIV-1MN; CyQuant/HIV-1MN, No wash
  TI (CC50/EC50): 8.91
HIV-1MN; CyQuant/HIV-1MN, Wash
  TI (CC50/EC50): 7.06
HIV-1MN; No wash
  EC50: 0.0700 % (w/v)
HIV-1MN; Wash
  EC50: 0.0500 % (w/v)
HIV-1MN; XTT/HIV-1MN, No wash
  TI (CC50/EC50): 4.46
HIV-1MN; XTT/HIV-1MN, Wash
  TI (CC50/EC50): 22.08
HIV-1ADA-M; CyQuant/HIV-1ADA-M, No wash
  TI (CC50/EC50): 3.01
HIV-1ADA-M; CyQuant/HIV-1ADA-M, Wash
  TI (CC50/EC50): 0.89
HIV-1ADA-M; No wash
  EC50: 0.2075 % (w/v)
HIV-1ADA-M; Wash
  EC50: 0.3948 % (w/v)
HIV-1ADA-M; XTT/HIV-1ADA-M, No wash
  TI (CC50/EC50): 1.50
HIV-1ADA-M; XTT/HIV-1ADA-M, Wash
  TI (CC50/EC50): 2.80
